Legend:
[1] = target: AP2-associated protein kinase 1 (Homo sapiens, UniProt Q2M2I8); assay: Inhibition of full length human AAK1 expressed in HEK293F cells assessed as suppression of AP2 phosphorylation measured after 3 hrs by Western blot analysis based cellular assay; format: cell-based
[2] = Metabolic stability in human liver microsomes assessed as parent compound remaining at 0.5 uM incubated for 10 mins in presence of NADPH by LC-MS/MS analysis; format: ADME, Microsome; settings: read-out: Stability
[3] = Metabolic stability in rat liver microsomes assessed as parent compound remaining at 0.5 uM incubated for 10 mins in presence of NADPH by LC-MS/MS analysis; format: ADME, Microsome; settings: read-out: Stability
Cytochrome P450 3A4 [4] = target: T1, Cytochrome P450 3A4 (Homo sapiens, UniProt P08684); assay: Inhibition of CYP3A4 (unknown origin) incubated for 10 mins in presence of NADPH by LC-MS/MS analysis; format: ADME
[5] = Volume of distribution at steady state in rat at 3 mg/kg,po or 2 mg/kg,iv; format: ADME, organism-based; settings: in vivo
[6] = Total body clearance in rat at 3 mg/kg, po or 2 mg/kg, iv; format: ADME, organism-based; settings: in vivo, read-out: CLt/F
[7] = Genotoxicity in Salmonella typhimurium by Ames test; format: toxicity; settings: salmonella enterica subsp. enterica serovar typhimurium
[8] = Plasma concentration in CCI induced tactile allodynia in Sprague-Dawley rat at 3 mg/kg, po measured at 7.5 hrs post dose; format: ADME, organism-based
[9] = Ratio of drug concentration in spinal cord to plasma in CCI induced tactile allodynia in Sprague-Dawley rat at 3 mg/kg, po measured at 7.5 hrs post dose; format: ADME, organism-based
[10] = Ratio of drug concentration in spinal cord to plasma in STZ-induced diabetic peripheral neuropathic mechanical allodynia in overnight fasted Sprague-Dawley rat at 1 mg/kg, po measured at 5.75 hrs post dose; format: ADME, organism-based
[11] = Permeability of compound at pH 7.4 incubated for 4 hrs by PAMPA assay; format: ADME; settings: read-out: permeability
[12] = Protein binding in human plasma assessed as unbound fraction measured after 3 hrs by LC/MS/MS analysis; format: ADME, cell-free
[13] = Protein binding in rat plasma assessed as unbound fraction measured after 3 hrs by LC/MS/MS analysis; format: ADME, cell-free
[14] = Metabolic stability in dog microsomes assessed as half life incubated at 0.5 uM for 10 mins in presence of NADPH by LC-MS/MS analysis; format: ADME, Canis lupus familiaris, Liver, Microsome
Cytochrome P450 2C19 = Cytochrome P450 2C19 (Homo sapiens, UniProt P33261); assay: Inhibition of CYP2C19 (unknown origin) incubated for 10 mins in presence of NADPH by LC-MS/MS analysis; format: ADME
Cytochrome P450 2D6 = Cytochrome P450 2D6 (Homo sapiens, UniProt P10635); assay: Inhibition of CYP2D6 (unknown origin) incubated for 10 mins in presence of NADPH by LC-MS/MS analysis; format: ADME
[15] = target: Voltage-gated inwardly rectifying potassium channel KCNH2 (Homo sapiens, UniProt Q12809); assay: Inhibition of human ERG by patch clamp assay; format: toxicity
[16] = Inhibition of sodium channel voltage-sensing domain (unknown origin); parameters: species or system Homo sapiens
[17] = Inhibition of calcium channel (unknown origin); parameters: species or system Homo sapiens
[18] = target: T2, Cyclin-G-associated kinase (Homo sapiens, UniProt O14976); assay: Inhibition of GAK (unknown origin)
T2 sequence (O14976 whole entry): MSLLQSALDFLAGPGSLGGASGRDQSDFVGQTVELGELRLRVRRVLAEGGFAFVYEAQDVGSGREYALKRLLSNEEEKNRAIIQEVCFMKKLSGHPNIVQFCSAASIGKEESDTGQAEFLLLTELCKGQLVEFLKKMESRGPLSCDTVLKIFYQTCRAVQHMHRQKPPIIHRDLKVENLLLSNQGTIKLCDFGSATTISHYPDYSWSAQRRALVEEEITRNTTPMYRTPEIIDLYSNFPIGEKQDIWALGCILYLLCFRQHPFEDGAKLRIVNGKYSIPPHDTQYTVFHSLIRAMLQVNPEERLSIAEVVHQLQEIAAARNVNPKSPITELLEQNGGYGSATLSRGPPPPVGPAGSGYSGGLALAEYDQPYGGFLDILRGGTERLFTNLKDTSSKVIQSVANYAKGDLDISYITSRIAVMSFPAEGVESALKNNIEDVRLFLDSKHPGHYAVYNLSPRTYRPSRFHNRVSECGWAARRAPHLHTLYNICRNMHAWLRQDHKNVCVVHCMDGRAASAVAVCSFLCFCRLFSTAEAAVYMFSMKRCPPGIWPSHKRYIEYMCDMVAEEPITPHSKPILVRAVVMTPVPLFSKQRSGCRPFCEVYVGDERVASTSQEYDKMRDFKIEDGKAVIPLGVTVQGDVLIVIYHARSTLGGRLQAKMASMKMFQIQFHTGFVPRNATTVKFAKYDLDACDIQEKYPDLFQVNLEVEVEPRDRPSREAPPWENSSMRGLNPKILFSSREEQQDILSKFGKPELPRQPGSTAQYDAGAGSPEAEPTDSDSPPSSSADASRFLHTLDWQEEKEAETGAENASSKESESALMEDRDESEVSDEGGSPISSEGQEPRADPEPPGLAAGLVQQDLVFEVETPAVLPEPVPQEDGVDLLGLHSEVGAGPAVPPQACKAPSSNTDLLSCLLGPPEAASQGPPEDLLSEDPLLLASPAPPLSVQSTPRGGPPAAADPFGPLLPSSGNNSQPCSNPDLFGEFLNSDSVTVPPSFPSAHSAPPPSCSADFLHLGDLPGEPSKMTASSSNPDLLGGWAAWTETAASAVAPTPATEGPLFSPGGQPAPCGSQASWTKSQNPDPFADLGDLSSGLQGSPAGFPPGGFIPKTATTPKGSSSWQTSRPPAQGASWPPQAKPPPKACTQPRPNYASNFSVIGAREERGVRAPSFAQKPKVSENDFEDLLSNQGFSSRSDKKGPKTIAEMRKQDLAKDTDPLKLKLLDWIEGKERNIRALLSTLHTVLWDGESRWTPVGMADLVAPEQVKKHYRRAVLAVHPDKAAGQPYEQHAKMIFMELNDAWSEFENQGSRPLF

[19] = target: MAP kinase-interacting serine/threonine-protein kinase 1 (Homo sapiens, UniProt Q9BUB5); assay: Inhibition of MNK1 (unknown origin)
[20] = target: MAP kinase-interacting serine/threonine-protein kinase 2 (Homo sapiens, UniProt Q9HBH9); assay: Inhibition of MNK2 (unknown origin)
[21] = target: Myosin light chain kinase 2, skeletal/cardiac muscle (Homo sapiens, UniProt Q9H1R3); assay: Inhibition of MYLK2 (unknown origin)
[22] = Cardiotoxicity in aortic ring (unknown origin) assessed as relaxation of phenylephrine induced aortic ring contraction at 10 uM incubated for 1 hr; format: toxicity, tissue-based, Aorta; parameters: scale not given: the % may be the effect or the level left; settings: human
[23] = Protein binding in mouse plasma assessed as unbound fraction measured after 3 hrs by LC/MS/MS analysis; format: ADME, cell-free
Cytochrome P450 3A4 [24] = target: T1, Cytochrome P450 3A4; assay: Time dependent inhibition of […] (unknown origin) using BFC as substrate incubated for 5 mins in presence of NADPH by LC-MS/MS analysis; format: ADME
Cytochrome P450 3A4 [25] = target: T1, Cytochrome P450 3A4; assay: Time dependent inhibition of […] (unknown origin) using BFC as substrate incubated for 30 mins in presence of NADPH by LC-MS/MS analysis; format: ADME

MAP kinase-interacting serine/threonine-protein kinase 2, sequence (Q9HBH9 whole entry): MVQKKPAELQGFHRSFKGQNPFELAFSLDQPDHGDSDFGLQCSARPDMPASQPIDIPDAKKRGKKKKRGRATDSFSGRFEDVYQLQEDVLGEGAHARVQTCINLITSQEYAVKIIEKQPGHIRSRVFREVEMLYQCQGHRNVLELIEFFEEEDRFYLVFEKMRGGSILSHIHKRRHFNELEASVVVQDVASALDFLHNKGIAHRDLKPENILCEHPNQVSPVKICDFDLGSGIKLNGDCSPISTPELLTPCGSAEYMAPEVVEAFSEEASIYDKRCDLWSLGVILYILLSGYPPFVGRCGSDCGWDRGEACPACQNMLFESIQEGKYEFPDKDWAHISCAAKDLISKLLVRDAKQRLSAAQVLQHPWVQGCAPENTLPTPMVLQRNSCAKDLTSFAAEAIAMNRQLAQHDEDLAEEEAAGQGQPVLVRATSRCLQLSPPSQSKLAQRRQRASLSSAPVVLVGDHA
Cytochrome P450 2D6, sequence (P10635 whole entry): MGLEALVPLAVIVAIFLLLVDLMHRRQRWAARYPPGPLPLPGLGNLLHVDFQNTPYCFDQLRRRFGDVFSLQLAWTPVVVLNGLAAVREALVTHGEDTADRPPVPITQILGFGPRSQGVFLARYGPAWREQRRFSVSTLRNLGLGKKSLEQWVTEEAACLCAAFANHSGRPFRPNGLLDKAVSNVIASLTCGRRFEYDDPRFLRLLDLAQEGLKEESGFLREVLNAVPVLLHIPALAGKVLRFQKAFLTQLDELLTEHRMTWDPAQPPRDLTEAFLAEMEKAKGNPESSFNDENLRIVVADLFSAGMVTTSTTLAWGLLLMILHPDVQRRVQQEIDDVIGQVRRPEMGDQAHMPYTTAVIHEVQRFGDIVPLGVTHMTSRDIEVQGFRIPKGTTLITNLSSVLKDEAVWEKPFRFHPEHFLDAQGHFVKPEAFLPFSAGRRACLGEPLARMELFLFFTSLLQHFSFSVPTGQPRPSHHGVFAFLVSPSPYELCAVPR
T1 sequence (P08684 whole entry): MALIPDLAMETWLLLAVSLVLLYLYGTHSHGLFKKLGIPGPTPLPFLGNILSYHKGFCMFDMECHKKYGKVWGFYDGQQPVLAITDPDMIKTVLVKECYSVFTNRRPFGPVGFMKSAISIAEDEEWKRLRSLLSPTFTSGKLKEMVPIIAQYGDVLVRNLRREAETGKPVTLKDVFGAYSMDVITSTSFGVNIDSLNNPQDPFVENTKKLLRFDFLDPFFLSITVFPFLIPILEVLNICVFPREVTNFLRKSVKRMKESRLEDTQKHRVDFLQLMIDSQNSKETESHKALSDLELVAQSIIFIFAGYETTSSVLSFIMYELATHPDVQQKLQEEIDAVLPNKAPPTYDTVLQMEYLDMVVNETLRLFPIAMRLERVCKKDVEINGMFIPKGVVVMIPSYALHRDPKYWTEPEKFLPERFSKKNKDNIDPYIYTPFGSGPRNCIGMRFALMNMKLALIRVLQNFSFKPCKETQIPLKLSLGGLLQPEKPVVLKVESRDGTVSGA
Cytochrome P450 2C19, sequence (P33261 whole entry): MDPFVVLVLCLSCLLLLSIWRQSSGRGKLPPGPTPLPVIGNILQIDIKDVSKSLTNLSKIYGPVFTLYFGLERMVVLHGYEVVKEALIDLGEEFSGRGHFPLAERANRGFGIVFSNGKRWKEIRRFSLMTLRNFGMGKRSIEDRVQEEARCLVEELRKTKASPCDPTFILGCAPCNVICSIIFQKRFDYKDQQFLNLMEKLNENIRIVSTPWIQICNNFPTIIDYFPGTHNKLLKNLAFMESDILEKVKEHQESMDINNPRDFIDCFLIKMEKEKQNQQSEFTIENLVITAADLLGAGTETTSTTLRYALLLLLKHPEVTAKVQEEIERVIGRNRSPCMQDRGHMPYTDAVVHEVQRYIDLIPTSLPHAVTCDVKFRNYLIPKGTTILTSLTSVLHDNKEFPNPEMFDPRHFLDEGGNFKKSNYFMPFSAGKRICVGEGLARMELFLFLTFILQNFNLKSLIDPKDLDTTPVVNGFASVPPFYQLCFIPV
AP2-associated protein kinase 1, sequence (Q2M2I8 whole entry): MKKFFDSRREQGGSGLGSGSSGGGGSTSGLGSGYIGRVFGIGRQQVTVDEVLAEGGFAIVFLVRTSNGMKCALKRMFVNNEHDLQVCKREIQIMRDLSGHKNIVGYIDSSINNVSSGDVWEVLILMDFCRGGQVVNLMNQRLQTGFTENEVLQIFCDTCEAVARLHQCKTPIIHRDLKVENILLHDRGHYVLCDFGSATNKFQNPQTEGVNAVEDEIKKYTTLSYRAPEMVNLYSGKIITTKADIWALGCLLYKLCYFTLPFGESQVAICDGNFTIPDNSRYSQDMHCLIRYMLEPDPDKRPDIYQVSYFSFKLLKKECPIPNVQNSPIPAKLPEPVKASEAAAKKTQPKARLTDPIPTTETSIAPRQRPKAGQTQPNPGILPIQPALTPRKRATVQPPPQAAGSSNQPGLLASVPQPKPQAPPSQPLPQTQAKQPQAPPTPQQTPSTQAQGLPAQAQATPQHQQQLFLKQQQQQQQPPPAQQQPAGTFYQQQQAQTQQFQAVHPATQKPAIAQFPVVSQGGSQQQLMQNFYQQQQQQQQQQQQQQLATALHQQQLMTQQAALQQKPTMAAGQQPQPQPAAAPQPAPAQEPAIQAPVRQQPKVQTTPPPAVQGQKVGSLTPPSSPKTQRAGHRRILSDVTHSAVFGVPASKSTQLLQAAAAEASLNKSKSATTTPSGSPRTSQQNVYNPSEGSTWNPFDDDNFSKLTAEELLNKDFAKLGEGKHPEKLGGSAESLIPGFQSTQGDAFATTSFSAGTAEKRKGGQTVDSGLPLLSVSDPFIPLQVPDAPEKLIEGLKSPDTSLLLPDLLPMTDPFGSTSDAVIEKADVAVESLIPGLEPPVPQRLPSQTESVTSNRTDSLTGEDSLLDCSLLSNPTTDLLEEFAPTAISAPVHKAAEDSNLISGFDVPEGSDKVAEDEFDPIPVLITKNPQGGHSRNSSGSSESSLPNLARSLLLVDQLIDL
MAP kinase-interacting serine/threonine-protein kinase 1, sequence (Q9BUB5 whole entry): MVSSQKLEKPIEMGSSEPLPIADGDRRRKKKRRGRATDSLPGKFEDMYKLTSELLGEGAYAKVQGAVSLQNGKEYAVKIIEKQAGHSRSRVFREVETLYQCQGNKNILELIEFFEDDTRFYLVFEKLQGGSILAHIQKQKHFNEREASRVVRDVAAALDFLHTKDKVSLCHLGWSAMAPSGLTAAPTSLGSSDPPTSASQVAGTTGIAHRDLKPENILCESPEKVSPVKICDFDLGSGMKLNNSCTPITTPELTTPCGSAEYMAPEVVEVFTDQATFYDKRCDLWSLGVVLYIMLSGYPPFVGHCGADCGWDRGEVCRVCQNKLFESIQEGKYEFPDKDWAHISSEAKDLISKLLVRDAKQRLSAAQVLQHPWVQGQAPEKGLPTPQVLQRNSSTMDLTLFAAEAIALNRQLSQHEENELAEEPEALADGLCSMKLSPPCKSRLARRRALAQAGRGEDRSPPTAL
Voltage-gated inwardly rectifying potassium channel KCNH2, sequence (Q12809 whole entry, the tested form may be a part): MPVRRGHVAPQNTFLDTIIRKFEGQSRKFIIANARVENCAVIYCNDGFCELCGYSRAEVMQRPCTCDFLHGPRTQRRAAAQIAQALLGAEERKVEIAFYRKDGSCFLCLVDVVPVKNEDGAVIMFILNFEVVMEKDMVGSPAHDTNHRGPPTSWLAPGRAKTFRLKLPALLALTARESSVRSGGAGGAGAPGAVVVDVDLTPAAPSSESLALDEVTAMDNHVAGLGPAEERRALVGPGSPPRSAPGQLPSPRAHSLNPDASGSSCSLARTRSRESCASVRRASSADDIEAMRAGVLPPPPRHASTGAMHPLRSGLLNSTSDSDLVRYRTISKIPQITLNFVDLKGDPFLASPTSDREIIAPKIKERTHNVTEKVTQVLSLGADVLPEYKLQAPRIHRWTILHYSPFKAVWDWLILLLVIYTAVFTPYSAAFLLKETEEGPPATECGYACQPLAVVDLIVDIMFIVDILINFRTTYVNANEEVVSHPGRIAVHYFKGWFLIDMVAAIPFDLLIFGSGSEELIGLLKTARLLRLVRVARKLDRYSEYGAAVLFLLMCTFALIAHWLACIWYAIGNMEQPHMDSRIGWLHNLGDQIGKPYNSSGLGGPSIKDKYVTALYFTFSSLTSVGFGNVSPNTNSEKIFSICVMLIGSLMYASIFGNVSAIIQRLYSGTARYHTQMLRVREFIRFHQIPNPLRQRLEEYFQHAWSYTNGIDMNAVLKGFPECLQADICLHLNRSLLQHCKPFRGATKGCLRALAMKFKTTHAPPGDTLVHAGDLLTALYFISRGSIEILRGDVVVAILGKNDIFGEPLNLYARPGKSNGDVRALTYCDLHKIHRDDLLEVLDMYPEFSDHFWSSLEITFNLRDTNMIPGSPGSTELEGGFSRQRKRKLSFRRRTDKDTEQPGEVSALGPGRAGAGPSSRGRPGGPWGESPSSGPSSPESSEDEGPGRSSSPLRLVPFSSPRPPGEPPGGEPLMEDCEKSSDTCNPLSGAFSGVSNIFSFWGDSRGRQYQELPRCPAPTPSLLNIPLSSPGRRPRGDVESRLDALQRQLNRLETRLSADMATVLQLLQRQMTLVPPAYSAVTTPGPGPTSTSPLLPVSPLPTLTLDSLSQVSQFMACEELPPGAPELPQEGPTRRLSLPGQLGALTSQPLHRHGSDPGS

Row | SMILES | IC50 [1] [µM] | remaining at 10 min, 0.5 µM [2] [%] | remaining at 10 min, 0.5 µM [3] [%] | IC50 (Cytochrome P450 3A4 [4]) [µM] | Vdss [5] [L/kg] | CL/F [6] [mL/min/kg] | Activity [7] | concentration at 7.5 h [8] [nM] | Kp at 7.5 h [9] | Papp at 4 h [11] [×10⁻⁶ cm/s] | fraction unbound at 3 h [12] | fraction unbound at 3 h [13] | half-life at 0.5 µM [14] [h] | IC50 (Cytochrome P450 2C19) [µM] | IC50 (Cytochrome P450 2D6) [µM] | IC50 [16] [µM] | IC50 [17] [µM] | IC50 [18] [µM] | IC50 [20] [µM] | Activity [22] [%] | further results
1 | COC(=O)Nc1cc(-c2ccc(OC[C@@](C)(N)CC(C)C)c(C)n2)ccn1 | 0.0024 | 95 | 95 | > 20 | 16.3 | 17.3 | Non-Toxic | 500 | 8.8 | 86.4 | 0.18 | 0.225 | 1.68 | > 20 | > 20 | 39 | 16 | 0.21 | 1.5 | 36 | Kp at 5.75 h [10]: 2.7; IC50 [15]: 5.9 µM; IC50 [19]: 0.19 µM; IC50 [21]: 1.8 µM
2 | CC(C)C[C@](C)(N)COc1cnc(-c2ccnc(C(F)F)c2)cc1C(F)F | 0.0005 | 89 | 85 | > 20 | 41.3 | 119 | Non-Toxic |  |  | 45.8 | 0.125 | 0.122 | 0.433 | > 20 | > 20 | 7.4 | 18.8 | 0.4 | 1.6 | 58 | Kp at 5.75 h [10]: 2.7; fraction unbound at 3 h [23]: 0.065; IC50 (Cytochrome P450 3A4 [24]): > 20 µM; IC50 (Cytochrome P450 3A4 [25]): > 20 µM; IC50 [15]: 1.3 µM; IC50 [19]: 0.26 µM; IC50 [21]: 0.45 µM
3 | COC(=O)Nc1cc(-c2cnc(OC[C@@](C)(N)CC(C)C)c(C)c2)ccn1 | 0.0034 | 92 | 83 | > 20 | 30.9 | 63.6 |  | 140 | 5.1 | 69.7 | 0.115 | 0.105 | > 2 | > 20 | > 20 | 11.5 | 35.3 | 0.44 | 1.3 | 66 | fraction unbound at 3 h [23]: 0.049; IC50 (Cytochrome P450 3A4 [24]): > 20 µM; IC50 (Cytochrome P450 3A4 [25]): > 20 µM
